# Assay results from patent publication US8466340B2, “Mouse model for pompe disease and methods of use thereof” (Amicus Therapeutics, Inc., priority 2009, dated 2013).
# Counter-ions that a name gives are not always drawn.
# What was measured:
# [1] = test system: mutated form of GAA (M519V, P545L, G549R, L552P) in HEK293 cells; test: GAA activity, protein and processing in HEK293 cells transiently-transfected with mutated GAA; assay type: cell-based; conditions: data not shown
# [2] = test system: mutant forms of GAA in Pompe patient-derived fibroblasts; test: Level of mutant GAA in Pompe patient-derived fibroblasts; assay type: cell-based, human; conditions: data not shown
# [3] = test system: GAA; test: GAA activity, protein and processing in monkeys administered DNJ orally; assay type: in vivo, cynologous monkeys; conditions: cynomolgus monkeys, data not shown
# [4] = target: T1, alpha-galactosidase (Mus musculus, UniProt P51569); test: Specificity: alpha-galactosidase in mice administered DNJ; assay type: in vivo; conditions: data not shown
# T1 construct: from tissue
# T1 sequence (P51569 32-419): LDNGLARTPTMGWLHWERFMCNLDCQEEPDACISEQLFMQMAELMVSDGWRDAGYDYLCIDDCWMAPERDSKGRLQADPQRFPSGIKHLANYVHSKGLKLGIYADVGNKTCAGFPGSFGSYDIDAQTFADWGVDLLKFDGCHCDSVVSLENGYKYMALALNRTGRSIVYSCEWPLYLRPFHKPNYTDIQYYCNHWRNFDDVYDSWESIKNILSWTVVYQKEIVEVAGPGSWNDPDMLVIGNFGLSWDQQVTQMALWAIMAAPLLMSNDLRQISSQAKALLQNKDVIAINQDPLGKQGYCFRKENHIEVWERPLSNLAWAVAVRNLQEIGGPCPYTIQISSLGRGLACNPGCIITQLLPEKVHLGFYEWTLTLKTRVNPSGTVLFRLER
# [5] = target: recombinant human GAA (Homo sapiens, UniProt P10253); test: Binding to and thermostability of recombinant human GAA in vitro; conditions: data not shown
# [6] = Half-life of DNJ; conditions: stated within a theory on/off dosing, compared to GAA (days); no method
# [7] = target: T2, hP545L GAA (Homo sapiens, UniProt P10253, P545L); test: GAA protein level by Western blotting in tissues of DNJ-dosed hP545L GAA Tg/KO mice; assay type: in vivo; conditions: 'Moderate' hP545L GAA Tg/KO mice; DNJ 30, 100, 300 mg/kg/day oral, 4 weeks; disease-relevant tissues
# Description: (§1) Mice were euthanized with CO2 and body weights were recorded. […] Plasma was collected by spinning blood at 2700 g for 10 minutes at 4° C. Heart, diaphragm, gastrocnemius, soleus, skin, and brain tissues were removed, washed in cold PBS, blotted dry, and weighed before storing on dry ice. For biochemical assays (GAA activity, glycogen and Western blotting), lysates were prepared by homogenizing ˜50 mg tissue for 3-5 seconds on ice with a micro homogenizer in 200 μL Lysis Buffer (25 mM Bis-Tris pH 6.5, 150 mM NaCl, 1% Triton X-100 pH 6.5). For histology assays, tissues were harvested and fixed immediately in 3.7% Formaldehyde/90% Ethanol mix. After fixation, the samples were processed in various grades (10, 20, 50, 75, 100%) of alcohol and embedded in paraffin.
# Tissue lysates (50 μg total protein per lane) were subjected to SDS-PAGE on 12% gels (Bio-Rad, Hercules, Calif.), transferred to PVDF membranes (Bio-Rad), and immunoblotted with a rabbit anti-human GAA (kind gift of Dr. Barry Byrne) polyclonal antibody (1:500 dilution). Protein bands were detected using peroxidase-conjugated goat anti-rabbit secondary antibodies (1:1000) (Jackson Immunosearch Labs, West Grove, Pa.) in combination with enhanced chemiluminescence (Pierce). […]
# (§2) The dosing solutions were made fresh each week and water consumption was monitored daily.
# [8] = target: human GAA missense mutations (Homo sapiens, UniProt P10253, P545L); test: In vitro studies to identify a human GAA missense mutation responsive to DNJ; assay type: cell-based; conditions: 5-day incubation with DNJ, data not shown
# [9] = test system: human GAA missense mutations; test: as above; assay type: cell-based; conditions: data not shown
# [10] = target: T2, hP545L GAA; test: Biochemical assay for determining GAA level in tissues of DNJ-dosed hP545L GAA Tg/KO mice; assay type: in vivo; conditions: 'Moderate' hP545L GAA Tg/KO mice; DNJ 30, 100, 300 mg/kg/day oral ad libitum in drinking water, 4 weeks; disease-relevant tissues
# Description: as §1, §2
# (§3) After dosing was completed, mice were euthanized and plasma samples as well as tissue samples harvested as described above.
# [11] = target: T3, GAA (Mus musculus, UniProt P70699); test: GAA activity, protein and processing in mice administered DNJ orally; assay type: in vivo; conditions: data not shown
# T3 construct: from tissue
# [12] = test system: mutant forms of recombinant human GAA in COS-7 cells; test: Level of mutant GAA in transiently-transfected COS-7 cells; assay type: cell-based; conditions: COS-7 cells transiently-transfected with recombinant human GAA; data not shown
# [13] = test system: hP545L GAA Tg/KO mice; test: Biochemical assay for determining glycogen level (amyloglucosidase digestion) in tissues of DNJ-dosed hP545L GAA Tg/KO mice; assay type: in vivo, mouse; conditions: 'Moderate' hP545L GAA Tg/KO mice
# Description: as §1
# Tissue glycogen levels were measured in supernatants of heat denatured (99° C. for 10 min.) lysates as prepared above for GAA assay. Samples were analyzed in duplicates by adding 4 μL of lysate to 36 μL water with and without 10 μL of 800 units/mL of amyloglucosidase enzyme (Sigma) and incubated for 1 hour at 50° C. The reaction was stopped by heat inactivation at 100° C. for 10 min. Finally 200 μL of glucose reagent was added to estimate the amount of glucose released at 340 nm absorbance on Spectramax. A glycogen standard curve ranging from 400 μg/mL to 5 μg/mL was run each day for conversion of absorbance data to absolute glycogen levels. Data are ultimately expressed as μg of glycogen cleaved/milligram of protein. The protein levels were measured in lysates (before denaturing) using Micro BCA Protein Assay Kit according to the manufacturer's instructions.
# as §2, §3
# Mice were orally dosed (ad libitum in drinking water) either daily or using one of three less-frequent on/off regimens (i.e., (i) 3 days on/4 days off; (ii) 5 days on/2 days off; or (iii) 7 days on/7 days off). […] The dosing solution was made fresh each week and water consumption was monitored daily.
# After dosing was completed, mice were euthanized and tissue samples harvested as described above.
# [14] = DNJ 30, 100, 300 mg/kg/day oral, 4 weeks
# T3 sequence (P70699 70-953): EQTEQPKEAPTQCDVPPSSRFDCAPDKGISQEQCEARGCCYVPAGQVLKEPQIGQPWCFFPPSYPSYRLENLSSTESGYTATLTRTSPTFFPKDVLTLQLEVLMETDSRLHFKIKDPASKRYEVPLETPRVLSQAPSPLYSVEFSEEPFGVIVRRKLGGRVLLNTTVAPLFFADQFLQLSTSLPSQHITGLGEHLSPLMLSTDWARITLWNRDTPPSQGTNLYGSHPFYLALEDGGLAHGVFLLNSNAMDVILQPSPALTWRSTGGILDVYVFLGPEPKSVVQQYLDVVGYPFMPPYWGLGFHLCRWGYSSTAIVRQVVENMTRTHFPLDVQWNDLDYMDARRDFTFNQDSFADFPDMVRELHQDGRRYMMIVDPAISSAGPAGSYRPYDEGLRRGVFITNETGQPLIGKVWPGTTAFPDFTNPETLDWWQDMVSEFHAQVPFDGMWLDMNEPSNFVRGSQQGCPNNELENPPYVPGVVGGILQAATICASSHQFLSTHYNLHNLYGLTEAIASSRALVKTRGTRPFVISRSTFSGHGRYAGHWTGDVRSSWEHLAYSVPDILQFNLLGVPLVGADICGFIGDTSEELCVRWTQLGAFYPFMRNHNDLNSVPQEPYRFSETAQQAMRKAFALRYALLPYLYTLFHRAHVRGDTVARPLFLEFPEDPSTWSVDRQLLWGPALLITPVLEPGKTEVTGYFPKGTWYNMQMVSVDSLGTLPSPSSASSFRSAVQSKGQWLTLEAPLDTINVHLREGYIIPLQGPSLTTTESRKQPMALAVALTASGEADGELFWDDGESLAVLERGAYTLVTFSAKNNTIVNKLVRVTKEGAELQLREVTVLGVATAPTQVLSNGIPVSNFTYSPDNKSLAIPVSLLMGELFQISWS
structure (smiles),measurement,setting,value
"OC[C@H]1NC[C@H](O)[C@@H](O)[C@@H]1O [DNJ, 1-deoxynojirimycin-HCl]","GAA processing to the 95-, 76-, and 70-kDa forms",[1],increase
same,GAA protein levels,[1],increase
same,level of GAA activity,[1],increase
same,level of multiple different mutant forms of GAA,[2],significantly increase
same,GAA activity,[3]; oral,increase in a dose-dependent manner
same,GAA protein levels,[3],increased
same,processing to the 70-kDa mature form of GAA,[3],increased
same,alpha-galactosidase activity,[4],no increase
same,binding to GAA,[5],directly bind
same,thermostability of recombinant human GAA,[5],concentration-dependent increase
same,half-life of DNJ,[6],hours
same,GAA protein levels,[7],significant and dose-dependent increase
same,processing of GAA protein to its 76 kDa mature form,[7],significant and dose-dependent increase
same,"GAA activity, P545L mutation",[8],"robust, reproducible, dose-dependent and statistically-significant increase"
same,"responsiveness of P285R, E262K, E579K GAA mutations to DNJ",[9],even more responsive than P545L
same,GAA levels (tissue GAA activity),[10],significant and dose-dependent increase
same,GAA protein levels,[11],increased
same,processing to the 70-kDa mature form of GAA,[11],increased
same,GAA activity,[11]; oral,increase in a dose-dependent manner
same,level of multiple different mutant forms of GAA,[12],significantly increase
same,"glycogen reduction, on/off regimens compared to daily dosing","[13]; 100 mg/kg/day oral, 4 weeks, p<0.05 daily vs. on/off",greater glycogen reduction
same,glycogen levels in disease-relevant tissue,"[13]; 100 mg/kg/day oral, daily or on/off (3/4, 5/2, 7/7 days), 4 weeks, majority of tissues examined, p<0.05 vs. untreated",significant reduction
same,glycogen levels of brain,[13]; [14],robust reduction
same,glycogen levels of diaphragm,[13]; [14],moderate reduction
same,glycogen levels of gastrocnemius,[13]; [14],moderate reduction
same,glycogen levels of heart,[13]; [14],moderate reduction
same,glycogen levels of skin,[13]; [14],robust reduction
same,glycogen levels of soleus,[13]; [14],robust reduction
same,tissue glycogen levels,"[13]; four-week oral administration (ad libitum), tissues overall",decrease
